One data set has as its target T1, IRAK4 protein (Homo sapiens, UniProt Q9NWZ3).
T1 construct: endogenous in cells; host or cells: human peripheral blood mononuclear cells (hPBMC) from healthy volunteers
T1 sequence (Q9NWZ3 1-460): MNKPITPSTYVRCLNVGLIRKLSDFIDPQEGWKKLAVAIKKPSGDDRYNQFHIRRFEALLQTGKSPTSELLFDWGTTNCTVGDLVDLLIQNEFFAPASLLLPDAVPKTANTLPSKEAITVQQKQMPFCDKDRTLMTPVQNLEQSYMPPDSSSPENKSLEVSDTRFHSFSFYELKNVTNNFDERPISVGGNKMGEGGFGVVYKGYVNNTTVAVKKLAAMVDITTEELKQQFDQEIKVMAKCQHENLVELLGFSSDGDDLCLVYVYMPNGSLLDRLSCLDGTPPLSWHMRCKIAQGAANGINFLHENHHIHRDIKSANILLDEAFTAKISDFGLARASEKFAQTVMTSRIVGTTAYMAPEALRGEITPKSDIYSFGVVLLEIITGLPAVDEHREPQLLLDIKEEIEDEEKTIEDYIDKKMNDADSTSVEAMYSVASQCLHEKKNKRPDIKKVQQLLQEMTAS
Briefly: IRAK4 degradation activity in hPBMC cells (24 hours). It counts as cell-based. The conditions noted are these: for Remaining IRAK4 protein IRAK4%: 100 nM, relative to vehicle control. Here is the method:
hPBMC cells are human peripheral blood mononuclear cells. Peripheral venous blood was taken from healthy volunteers, and hPBMCs were isolated using Ficoll density gradient centrifugation (Ficoll-Paque™ PLUS 1.077, GE, Cat. 17-1140-02). Culture conditions: RPMI-1640+10% FBS+1% penicillin-streptomycin solution. The cells were cultured in an incubator at 37° C. and 5% CO2. The cells were plated in a 24-well plate at 1×10^6 cells/well. After plating, compounds at different concentrations were added, and the cells were cultured in an incubator at 37° C. and 5% CO2 for 24 hours. After the culture was completed, the cells were collected, and RIPA lysis buffer (beyotime, Cat. P0013B) was added. The cells were lysed on ice for 20 minutes, and then centrifuged at 12000 rpm at 4° C. for 10 minutes. The protein sample of the supernatant was collected, the protein was quantified using a BCA kit (Beyotime, Cat. P0009), and then the protein was diluted to 1 mg/mL. The expression of IRAK4 (CST, Cat. 4363S) and the internal reference cofilin (CST, Cat. 5175S) were detected using a fully automated western blot quantitative analyzer (Proteinsimple). The expression level of IRAK4 relative to the internal reference was calculated using compass software. The remaining IRAK4 protein IRAK4% relative to the vehicle control group at different doses was calculated using formula (1), and the IRAK4 protein degradation relative to the vehicle control group at different doses was calculated using formula (2), where IRAK4administration was the expression level of IRAK4 in the administration groups at different doses, and IRAK4vehicle was the expression level of IRAK4 in the vehicle control group. An IRAK4 degradation-drug concentration curve was fit using Graphpad Prism 8 software, and the DC50 was calculated.

Data set [1] concerns the target T2, hERG potassium ion channel (Homo sapiens, UniProt Q12809).
T2 construct: expressed in transfected cells; host or cells: CHO (Chinese hamster ovary) cells stably expressing hERG
The data set is described as follows: Effect on hERG potassium ion channel (manual patch-clamp, CHO cells). It counts as cell-based. The conditions noted are these: CHO cells stably expressing hERG, whole cell patch-clamp; read-out: IC50 for inhibitory effect on hERG potassium channel current. The source says:
Experimental platform: electrophysiological manual patch-clamp system
Cell line: Chinese hamster ovary (CHO) cell line stably expressing hERG potassium ion channel
Experimental method: In CHO (Chinese Hamster Ovary) cells stably expressing hERG potassium channel, whole cell patch-clamp technique was used to record hERG potassium channel current at room temperature. The glass microelectrode was made of a glass electrode blank (BF150-86-10, Sutter) by a puller. The tip resistance after filling the liquid in the electrode was about 2-5 MQ. The glass microelectrode can be connected to the patch-clamp amplifier by inserting the glass microelectrode into an amplifier probe. The clamping voltage and data recording were controlled and recorded by the pClamp 10 software through a computer. The sampling frequency was 10 kHz, and the filtering frequency was 2 kHz. After the whole cell records were obtained, the cells were clamped at −80 mV, and the step voltage that induced the hERG potassium current (lhERG) was depolarized from −80 mV to +20 mV for 2 s, then repolarized to −50 mV, and returned to −80 mV after 1 s. This voltage stimulation was given every 10 s, and the administration process was started after the hERG potassium current was confirmed to be stable (at least 1 minute). The compound was administered for at least 1 minute at each test concentration, and at least 2 cells (n≥2) were tested at each concentration.
Data processing: Data analysis processing was carried out by using pClamp 10, GraphPad Prism 5 and Excel software. The inhibition degree of hERG potassium current (peak value of hERG tail current induced at −50 mV) at different compound concentrations was calculated by the following formula:
[formula] • where Inhibition % represents the percentage of inhibition of hERG potassium current by the compound, and l and lo represent the amplitude of hERG potassium current after and before the administration, respectively.
Compound IC50 was calculated using GraphPad Prism 5 software by fitting according to the following equation:
[formula] • where X represents the Log value of the tested concentration of the test sample, Y represents the inhibition percentage at the corresponding concentration, and Bottom and Top represent the minimum and maximum inhibition percentage, respectively.
On the technique in general: hERG is a cardiac potassium channel; its block is linked to QT prolongation.

Data set [2] is described as follows: Pharmacokinetic test in mice. It counts as in vivo, ICR mice. The conditions noted are these: plasma, i.g. 10 mg/kg. Here is the method:
Experimental animals: Male ICR mice, about 25 g, 6 mice/compound, purchased from Chengdu Ddossy Experimental Animals Co., Ltd.
Test design: On the day of the experiment, 6 ICR mice were randomly grouped according to their body weights. The animals were fasted with water available for 12 to 14 h one day before the administration, and were fed 4 h after the administration.
• Vehicle for intravenous administration: 5% DMA+5% Solutol+90% Saline; • Vehicle for intragastric administration: 5% DMSO+30% PEG400+65% (20% SBE-CD); (DMSO: dimethyl sulfoxide; DMA: dimethylacetamide; Solutol: polyethylene glycol-15-hydroxystearate; PEG400: polyethylene glycol 400; SBE-β-CD: sulfobutyl-β-cyclodextrin; Saline: physiological saline)
Before and after the administration, 0.15 mL of blood was taken from the orbit of the animals under isoflurane anesthesia and placed in an EDTAK2 centrifuge tube. The blood was centrifuged at 5000 rpm and 4° C. for 10 min to collect plasma. The blood collection time points for the intravenous administration group and intragastric administration group were 0 min, 5 min, 15 min, 30 min, 1 h, 2 h, 4 h, 7 h and 24 h. Before analysis and detection, all samples were stored at −60° C. The samples were analyzed quantitatively by LC-MS/MS.

[3] abbreviates: male, ICR, mouse, po, 10 mg/kg, read-out: AUC0-t.

Where two headings read alike, the source gives them in different places.

The values that follow come from US20250084101A1, “COMPOUND FOR INHIBITING AND DEGRADING IRAK4, AND PHARMACEUTICAL COMPOSITION AND PHARMACEUTICAL APPLICATION THEREOF” (XIZANG HAISCO PHARMACEUTICAL CO., LTD., priority 2022, published 2025).

T2 sequence (Q12809 whole entry): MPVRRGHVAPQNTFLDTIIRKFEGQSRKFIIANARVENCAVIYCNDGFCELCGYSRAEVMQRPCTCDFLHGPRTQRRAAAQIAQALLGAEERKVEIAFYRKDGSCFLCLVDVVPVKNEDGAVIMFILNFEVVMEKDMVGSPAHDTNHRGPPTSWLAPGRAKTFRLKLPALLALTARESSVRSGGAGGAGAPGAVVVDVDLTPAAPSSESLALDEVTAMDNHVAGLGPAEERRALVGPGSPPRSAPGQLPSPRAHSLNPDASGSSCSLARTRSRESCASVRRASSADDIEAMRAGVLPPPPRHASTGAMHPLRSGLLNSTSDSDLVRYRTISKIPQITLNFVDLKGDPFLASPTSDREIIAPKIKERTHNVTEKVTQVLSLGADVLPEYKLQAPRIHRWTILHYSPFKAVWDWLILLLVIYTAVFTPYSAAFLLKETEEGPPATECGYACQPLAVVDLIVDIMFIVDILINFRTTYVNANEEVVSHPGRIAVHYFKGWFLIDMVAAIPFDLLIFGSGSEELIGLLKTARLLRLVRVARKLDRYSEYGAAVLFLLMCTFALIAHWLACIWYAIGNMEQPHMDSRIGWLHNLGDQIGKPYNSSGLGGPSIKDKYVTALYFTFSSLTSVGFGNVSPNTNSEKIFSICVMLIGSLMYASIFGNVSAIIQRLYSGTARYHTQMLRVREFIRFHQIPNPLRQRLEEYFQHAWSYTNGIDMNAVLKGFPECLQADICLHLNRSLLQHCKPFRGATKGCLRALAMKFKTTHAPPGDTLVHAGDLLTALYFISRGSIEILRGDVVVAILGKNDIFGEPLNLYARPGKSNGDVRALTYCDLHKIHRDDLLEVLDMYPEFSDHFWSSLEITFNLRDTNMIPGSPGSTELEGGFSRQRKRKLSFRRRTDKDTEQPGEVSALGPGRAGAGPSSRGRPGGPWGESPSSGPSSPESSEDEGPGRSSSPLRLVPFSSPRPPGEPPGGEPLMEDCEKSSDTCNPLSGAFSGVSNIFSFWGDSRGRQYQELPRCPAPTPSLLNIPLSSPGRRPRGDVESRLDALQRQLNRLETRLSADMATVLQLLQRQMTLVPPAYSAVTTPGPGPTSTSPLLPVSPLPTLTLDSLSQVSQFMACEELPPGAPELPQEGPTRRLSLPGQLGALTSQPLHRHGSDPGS

Consider `Cn1nc(C2CCC(=O)NC2=O)c2cccc(C#CCO[C@@H]3CCN(C[C@H]4CC[C@H](n5cc(NC(=O)c6cnn7ccc(N8CCO[C@@H](CO)C8)nc67)c(C(F)F)n5)CC4)C[C@@H]3F)c21` (single isomer, unassigned) [Chiral isomer 1 of compound 19], for which the DC50 (as a rule, the concentration giving 50% degradation) at IRAK4 protein was less than 0.02 µM. Also, the IC50 (usually the concentration needed to halve the response being measured) in data set [1] was greater than 20 µM. This compound came in with an AUC(0-t) in data set [2] of 13407 ± 4034 ng·h/mL.

Regarding `Cn1nc(C2CCC(=O)NC2=O)c2cccc(C#CCO[C@@H]3CCN(C[C@H]4CC[C@H](n5cc(NC(=O)c6cnn7ccc(N8C[C@H]9C[C@@H]8CO9)nc67)c(C(F)F)n5)CC4)C[C@@H]3F)c21` (stereo partly drawn) [Compound 10], on IRAK4 protein, the “Remaining IRAK4 protein IRAK4%” value was “A (A ≤ 10%)”. Besides, the 50% inhibitory concentration (IC50) in data set [1] was greater than 30 µM. For the same compound, the AUC(0-t) in data set [2] (setting [3]) is 17500 ± 5260 ng·h/mL.

As for `Cn1nc(C2CCC(=O)NC2=O)c2cccc(C#CCO[C@H]3CCN(C[C@H]4CC[C@H](n5cc(NC(=O)c6cnn7ccc(N8C[C@H]9C[C@@H]8CO9)nc67)c(C(F)F)n5)CC4)C[C@H]3F)c21` (stereo partly drawn) [Compound 11], the “Remaining IRAK4 protein IRAK4%” value at IRAK4 protein is given as “A (A ≤ 10%)”. Further, the IC50 in data set [1] was greater than 30 µM. Further, in data set [2] (setting [3]), the AUC(0-t) was determined as 8750 ± 4650 ng·h/mL.
